Source: ChEMBL document CHEMBL1201862, “PubChem BioAssay data set” (2004)
Activity calls are given as the source filed them.

What was measured:
[1] = P. falciparum late gametocyte killing, dose response, luminescence (AID 1117278); format: functional, cell-based;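 also: gametocytes exposed to compound for 24 hours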
[2] = Jurkat T cell cytotoxicity, dose response, cytotoxicity control for P. falciparum gametocyte viability project, luminescence (AID 1117277); format: functional, cell-based;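 also: potency reflects loss of cellular ATP meaning fewer viable cells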
[3] = biological target: Mitogen-activated protein kinase 10 (Homo sapiens, UniProt P53779); experiment: Dose response biochemical screening assay for inhibitors of c-Jun N-Terminal Kinase 3 (JNK3). [Related pubchem assays: 746 ]
Mitogen-activated protein kinase 10, sequence (P53779 whole entry): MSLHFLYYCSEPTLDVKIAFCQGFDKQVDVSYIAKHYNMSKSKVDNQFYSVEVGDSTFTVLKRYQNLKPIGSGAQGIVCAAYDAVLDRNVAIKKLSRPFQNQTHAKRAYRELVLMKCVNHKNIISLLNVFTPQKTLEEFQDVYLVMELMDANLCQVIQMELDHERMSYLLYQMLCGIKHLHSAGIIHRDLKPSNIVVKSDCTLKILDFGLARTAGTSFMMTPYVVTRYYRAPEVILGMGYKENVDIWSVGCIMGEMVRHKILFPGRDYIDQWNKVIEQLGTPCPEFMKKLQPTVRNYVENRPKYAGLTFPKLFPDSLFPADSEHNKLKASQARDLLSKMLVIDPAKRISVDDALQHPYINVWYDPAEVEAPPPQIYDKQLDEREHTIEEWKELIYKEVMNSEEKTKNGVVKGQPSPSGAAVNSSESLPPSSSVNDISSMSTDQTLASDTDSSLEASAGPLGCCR

[4] = THP-1 cell cytotoxicity, dose response, cytotoxicity control for Vif-APOBEC3G degradation inhibitor project, THP-1 cells (AID 1117359); format: functional; settings: Human immunodeficiency virus 1, THP-1
[5] = biological target: E3 ubiquitin-protein ligase Mdm2 (Homo sapiens, UniProt Q00987); experiment: enhancers of MDM2-luciferase reporter signal, concentration-effect titration, project on inhibitors of MDM2 ubiquitin ligase, cellular assay, luminescent readout, 384-well plate format (AID 1394); format: functional;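 also: MDM2 E3 inhibitors raise luminescence so EC50 is for signal enhancement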
E3 ubiquitin-protein ligase Mdm2, sequence (Q00987 whole entry): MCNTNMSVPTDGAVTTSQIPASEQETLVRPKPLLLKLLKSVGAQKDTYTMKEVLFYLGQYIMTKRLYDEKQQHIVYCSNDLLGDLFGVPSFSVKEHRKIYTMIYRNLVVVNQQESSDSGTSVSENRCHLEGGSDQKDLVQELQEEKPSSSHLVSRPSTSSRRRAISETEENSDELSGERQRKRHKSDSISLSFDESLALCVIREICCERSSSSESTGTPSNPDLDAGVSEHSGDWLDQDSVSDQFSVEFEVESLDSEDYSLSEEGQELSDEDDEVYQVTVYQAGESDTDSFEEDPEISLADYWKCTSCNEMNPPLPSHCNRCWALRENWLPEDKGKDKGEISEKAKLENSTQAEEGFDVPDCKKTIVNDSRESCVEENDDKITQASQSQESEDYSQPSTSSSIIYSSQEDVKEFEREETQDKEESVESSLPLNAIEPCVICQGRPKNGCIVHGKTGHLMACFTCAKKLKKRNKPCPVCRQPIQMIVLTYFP

Vero = experiment: cells; format: functional; settings: Chlorocebus sabaeus
[6] = P. falciparum Dd2 growth inhibitors, dose response, SYBR Green, cherry-picked samples (AID 1159567); format: functional, cell-based
[7] = HepG2 cell cytotoxicity, dose response, cytotoxicity control, cherry-picked samples (AID 1159577); format: functional, cell-based
[8] = P. falciparum 3D7-ScDHODH growth inhibitors, dose response, SYBR Green, dry powder samples (AID 1159570); format: functional, cell-based;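 also: parasite growth measured after 72 hours of compound exposure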
[9] = HepG2 cell cytotoxicity, dose response, cytotoxicity control, plate reader, dry powder samples (AID 1159569); format: functional, cell-based;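 also: inhibitor potency with signal falling toward the positive control level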
[10] = P. falciparum Dd2 growth inhibitors, dose response, SYBR Green, dry powder samples (AID 1159566); format: functional, cell-based;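 also: potency for growth inhibition with lower SYBR green DNA signal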
[11] = P. falciparum ATP4 D1247Y mutant growth inhibitors, dose response, NITD609-resistant line, SYBR Green, dry powder (AID 1159571); format: functional, cell-based;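 also: parasites synchronized at ring stage by sorbitol before testing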
[12] = HeLa 2N DNA content increase, dose response, cell-based, IC50 (AID 1117349); format: functional
[13] = Concentration-dependent survival of SW480 colon cancer line, luminescence detection with CellTiter-Glo, half-maximal inhibitory concentration (AID 1117338); format: functional
[14] = RKO cell viability reduction, dose response, CellTiter-Glo luminescence (AID 1117322); format: functional
[15] = cytotoxicity toward HCT116 cells – cell-based, CellTiter-Glo luminescence, IC50, dose response (AID 1117332); format: functional; settings: HCT-116
[16] = SNU-C1 cell viability reduction, dose response, CellTiter-Glo luminescence (AID 1117323); format: functional, cell-based
[17] = cytotoxicity toward Colo320 cells – cell-based, CellTiter-Glo luminescence, IC50, dose response (AID 1117334); format: functional; settings: COLO 320
[18] = HeLa 4N DNA content increase, dose response, cell-based, IC50 (AID 1117351); format: functional
[19] = cytotoxicity toward HT-29 cells – cell-based, CellTiter-Glo luminescence, IC50, dose response (AID 1117330); format: functional
[20] = CellTiter-Glo luminescent dose response of DLD-1 viability loss (AID 1117352); format: functional
[21] = HCT116 cell viability decrease, GSK3B pretreatment – CellTiter-Glo, IC50, dose response (AID 1117339); format: functional; settings: HCT-116
[22] = biological target: T1, Apoptotic protease-activating factor 1 (Homo sapiens, UniProt O14727); format: functional
T1 sequence (O14727 whole entry): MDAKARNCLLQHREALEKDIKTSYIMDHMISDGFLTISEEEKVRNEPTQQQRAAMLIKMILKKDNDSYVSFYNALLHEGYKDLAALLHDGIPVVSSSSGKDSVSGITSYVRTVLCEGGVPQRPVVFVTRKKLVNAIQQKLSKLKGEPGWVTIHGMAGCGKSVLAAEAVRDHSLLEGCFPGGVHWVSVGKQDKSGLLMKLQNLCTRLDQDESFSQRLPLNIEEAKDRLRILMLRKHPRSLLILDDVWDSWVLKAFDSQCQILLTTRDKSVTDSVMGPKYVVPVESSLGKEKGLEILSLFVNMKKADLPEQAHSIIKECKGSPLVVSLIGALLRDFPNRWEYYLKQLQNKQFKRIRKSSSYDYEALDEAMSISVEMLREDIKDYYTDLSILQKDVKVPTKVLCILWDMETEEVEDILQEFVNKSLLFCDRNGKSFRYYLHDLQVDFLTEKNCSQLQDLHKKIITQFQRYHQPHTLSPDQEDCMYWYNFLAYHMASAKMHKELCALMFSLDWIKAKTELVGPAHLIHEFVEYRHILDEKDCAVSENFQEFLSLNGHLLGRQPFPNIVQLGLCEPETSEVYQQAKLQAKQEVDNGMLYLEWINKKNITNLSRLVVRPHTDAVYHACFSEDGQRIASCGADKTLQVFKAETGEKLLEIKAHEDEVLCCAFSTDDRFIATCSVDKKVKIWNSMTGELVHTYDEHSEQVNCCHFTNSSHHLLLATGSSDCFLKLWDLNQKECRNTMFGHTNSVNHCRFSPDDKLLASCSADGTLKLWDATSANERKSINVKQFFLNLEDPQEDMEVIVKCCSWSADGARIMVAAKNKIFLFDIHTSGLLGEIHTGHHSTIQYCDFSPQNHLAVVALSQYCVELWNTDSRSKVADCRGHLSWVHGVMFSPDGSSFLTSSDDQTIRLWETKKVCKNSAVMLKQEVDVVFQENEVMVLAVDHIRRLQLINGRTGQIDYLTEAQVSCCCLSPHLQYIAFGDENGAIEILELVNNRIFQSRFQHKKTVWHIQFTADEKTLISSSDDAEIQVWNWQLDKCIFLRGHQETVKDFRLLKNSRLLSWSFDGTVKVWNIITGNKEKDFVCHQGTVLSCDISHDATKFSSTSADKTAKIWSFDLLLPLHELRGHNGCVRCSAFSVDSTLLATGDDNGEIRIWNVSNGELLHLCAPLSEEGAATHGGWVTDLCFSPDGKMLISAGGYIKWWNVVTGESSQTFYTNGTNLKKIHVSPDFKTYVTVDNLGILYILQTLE

[23] = biological target: Tyrosyl-DNA phosphodiesterase 2 (Homo sapiens, UniProt O95551); experiment: human TDP2 enzyme inhibitors, dose response, biochemical, epi absorbance, IC50 (AID 743297)
Tyrosyl-DNA phosphodiesterase 2, sequence (O95551 whole entry): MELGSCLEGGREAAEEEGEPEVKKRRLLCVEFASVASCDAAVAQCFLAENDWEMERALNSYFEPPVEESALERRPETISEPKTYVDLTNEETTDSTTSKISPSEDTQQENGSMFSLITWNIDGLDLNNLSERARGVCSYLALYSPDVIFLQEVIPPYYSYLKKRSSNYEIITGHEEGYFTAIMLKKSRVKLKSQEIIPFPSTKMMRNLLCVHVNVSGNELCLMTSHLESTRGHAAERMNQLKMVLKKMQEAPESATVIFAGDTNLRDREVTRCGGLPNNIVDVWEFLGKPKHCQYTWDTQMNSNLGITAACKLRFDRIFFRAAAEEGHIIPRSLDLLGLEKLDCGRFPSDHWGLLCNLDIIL

COC(=O)CCCC(=O)NC(C)c1cnn(-c2ccccc2C)c1C (stereo not drawn)
IC50 [1]: > 109000 nM (inactive)
IC50 [2]: > 83300 nM (inactive)

Nc1nc(SCC(=O)N2CCCC2)nc(O)c1NC(=O)c1cccs1
IC50 [1]: > 109000 nM (inactive)
IC50 [2]: > 83200 nM (inactive)

O=c1[nH]c2ccccc2c2nc3ccccn3c12
IC50 [3]: 13800 nM (not active)

O=[N+]([O-])c1ccc2c([N+](=O)[O-])ccc3c2c1CC3
CC50 [4]: > 40000 nM (active)

CN(C)c1n/c(=N/Cc2ccco2)ss1
EC50 [5]: 260 nM (active)
CC50 (Vero): 23800 nM (active)

COc1ccccc1C#Cc1ccc([C@H]2[C@@H](C#N)N(C(=O)C3CCC3)[C@@H]2CO)cc1
AC50 [6]: 4980 nM (active)
AC50 [7]: > 39000 nM (inactive)

COc1cccc(C#Cc2ccc([C@@H]3[C@@H](CO)N(C(=O)C4CCCCC4)[C@H]3C#N)cc2)c1
AC50 [8]: 2000 nM (active)
AC50 [9]: 24500 nM (active)
AC50 [6]: 2600 nM (active)
AC50 [10]: 1720 nM (active)
AC50 [7]: > 39000 nM (inactive)
AC50 [11]: 2060 nM (active)

CCCSc1ccc2[nH]c(NC(=O)OC)nc2c1 [ALBENDAZOLE]
IC50 [12]: 65.6 nM (active)
IC50 [13]: > 20000 nM (inactive)
IC50 [14]: 165 nM (active)
IC50 [15]: 112 nM (active)
IC50 [16]: > 20000 nM (inactive)
IC50 [17]: 502 nM (active)
IC50 [18]: 61.2 nM (active)
IC50 [19]: > 20000 nM (inactive)
IC50 [20]: 108 nM (active)
IC50 [21]: 158 nM (active)

CCc1oc2ccccc2c1C(=O)c1cc(I)c(O)c(I)c1 [BENZIODARONE]
IC50 [12]: > 10000 nM (inactive)
IC50 [13]: 1 nM (active)
IC50 [14]: 3 nM (active)
IC50 [15]: 3 nM (active)
IC50 [16]: 1 nM (active)
IC50 [17]: 3 nM (active)
IC50 [18]: > 10000 nM (inactive)
IC50 [19]: 1 nM (active)
IC50 [20]: 3 nM (active)
IC50 [21]: 1 nM (active)

COc1cc2c(cc1O)[C@@H]1Cc3ccc(OC)c(O)c3CN1CC2 [SCOULERINE]
IC50 [22]: 16300 nM (active)
IC50 [23]: > 128000 nM (inactive)
